Results: patent US8697683B2, “Azetidinyl diamides as monoacylglycerol lipase inhibitors” (Janssen Pharmaceutica, NV, priority 2009, dated 2014)
Where a chain is given by its changes, count along the chain named.

Each compound was assayed against T1, purified wild type MGL (wt-MGLL 6H-11-313) (Homo sapiens, UniProt Q99685) (assay: not given). Conditions: read-out: MGL wild type inh IC50, 4MU-B substrate 10 μM, 37° C.
T1 sequence (Q99685 1-303): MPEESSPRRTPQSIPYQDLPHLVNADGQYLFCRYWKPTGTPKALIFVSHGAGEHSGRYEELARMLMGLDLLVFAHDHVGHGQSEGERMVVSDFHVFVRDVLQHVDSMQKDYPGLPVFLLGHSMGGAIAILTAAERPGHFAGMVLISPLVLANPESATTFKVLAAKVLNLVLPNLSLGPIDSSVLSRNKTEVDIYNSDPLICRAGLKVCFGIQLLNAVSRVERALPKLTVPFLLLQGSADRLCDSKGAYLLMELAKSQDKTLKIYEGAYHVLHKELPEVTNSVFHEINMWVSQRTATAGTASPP

Compound	IC50 [nM]
O=C(c1ccccc1)N1CCN(C2CN(C(=O)c3ccc(Oc4cccc(F)n4)cc3)C2)CC1 [Cpd 522]	2680

Same assay, conditions: read-out: MGL wild type inh IC50, substrate 4MU-B 10 μM, 37° C.

Compound	IC50 [nM]
O=C(c1ccccc1)N1CC(N2CCN(C(=O)c3cc4cc(Cl)ccc4o3)CC2)C1 [Cpd 524]	4370
O=C(c1ccccc1)N1CCN(C2CN(C(=O)c3ccc4c(c3)c(F)cn4-c3ccccc3)C2)CC1 [Cpd 589]	146
O=C(c1ccccc1)N1CCN(C2CN(C(=O)c3ccc4c(ccn4-c4ccccc4)c3F)C2)CC1 [Cpd 632]	281
Cc1c(C(=O)N2CCN(C3CN(C(=O)c4nccs4)C3)CC2)n(C)c2ccc(Cl)cc12 [Cpd 762]	632
O=C(c1ccc(Oc2cccc(Cl)c2)nc1)N1CC(N2CCN(C(=O)c3cscn3)CC2)C1 [Cpd 803]	1870

Same assay, conditions: read-out: MGL wild type inh IC50, substrate 4MU-B 10 μM, enzyme 5 nM, 37° C.

Compound	IC50 [nM]
Cc1sc(C(=O)N2CC(N3CCN(C(=O)c4nccs4)CC3)C2)cc1Br [Cpd 745]	342
O=C(c1ccc(-c2ccccc2)cc1)N1CC(N2CCN(C(=O)c3ccccc3)CC23CC3)C1 [Cpd 1499]	> 16700

Each compound was assayed against T2, mutant MGL (Homo sapiens, UniProt Q99685, L169S/L176S) (assay: MGL ThermoFluor Assay-Mutant). Conditions: read-out: MGL mutant ThermoFluor Kd, ThermoFluor thermal stability binding assay.
T2 sequence (Q99685 1-303 L169S/L176S): T1 sequence (Q99685 1-303) with L169S, L176S
Experimental: The ThermoFluor (TF) assay is a 384-well plate-based binding assay that measures thermal stability of proteins^1,2. […] TF dye used in all experiments was 1,8-ANS (Invitrogen: A-47). Final TF assay conditions used for MGL studies were 0.07 mg/ml of mutant MGL, 100 μM ANS, 200 mM NaCl, 0.001% Tween-20 in 50 mM PIPES (pH=7.0).
Screening compound plates contained 100% DMSO compound solutions at a single concentration. […] Columns 12 and 24 were used as DMSO reference and contained no compound. […] Following compound dispension, protein and dye solutions were added to achieve the final assay volume of 3 μL.
Bar-coded assay plates were robotically loaded onto a thermostatically controlled PCR-type thermal block and then heated from 40 to 90° C. degrees at a ramp-rate of 1° C./min for all experiments. Fluorescence was measured by continuous illumination with UV light (Hamamatsu LC6), supplied via fiber optics and filtered through a band-pass filter (380-400 nm; >60D cutoff). Fluorescence emission of the entire 384-well plate was detected by measuring light intensity using a CCD camera (Sensys, Roper Scientific) filtered to detect 500±25 nm, resulting in simultaneous and independent readings of all 384 wells. A single image with 20-sec exposure time was collected at each temperature, and the sum of the pixel intensity in a given area of the assay plate was recorded vs temperature and fit to standard equations to yield the Tm^1. • 1.
For some experiments, quantitative NMR spectroscopy (qNMR) was used to measure concentration of the initial 100% DMSO compound solutions and, using the same fitting method, qKd values were determined

Compound	Kd [µM]
O=C(c1ccccc1)N1CCN(C2CN(C(=O)c3ccc(Oc4cccc(F)n4)cc3)C2)CC1 [Cpd 522]	4.71
O=C(c1ccccc1)N1CC(N2CCN(C(=O)c3cc4cc(Cl)ccc4o3)CC2)C1 [Cpd 524]	1.67
COc1cncc(Oc2ccc(C(=O)N3CC(N4CCN(C(=O)c5ccccc5)CC4)C3)cc2)c1 [Cpd 533]	10
O=C(c1ccc(Oc2cccc(Cl)c2)nc1)N1CC(N2CCN(C(=O)c3cscn3)CC2)C1 [Cpd 803]	2.13

Same assay, conditions: read-out: MGL mutant ThermoFluor qKd (μM) (using qNMR conc.), ThermoFluor, compound concentration measured by qNMR

Compound	Kd [µM]
O=C(c1ccccc1)N1CCN(C2CN(C(=O)c3ccc4c(ccn4-c4ccccc4)c3F)C2)CC1 [Cpd 632]	0.037
Cc1c(C(=O)N2CCN(C3CN(C(=O)c4nccs4)C3)CC2)n(C)c2ccc(Cl)cc12 [Cpd 762]	1

Same assay, conditions: read-out: MGL mutant ThermoFluor qKd (μM) (using qNMR conc.), compound concentration measured by quantitative NMR (qNMR)

Compound	Kd [µM]
Cc1sc(C(=O)N2CC(N3CCN(C(=O)c4nccs4)CC3)C2)cc1Br [Cpd 745]	0.283

These compounds were tested against T3, MGL (Rattus norvegicus, UniProt Q8R431) (assay: 2-AG Accumulation Assay (rat brain homogenate)). Conditions: compound 1 μM, percent of vehicle 2-AG accumulation.
T3 construct: one g rat brain was homogenized
T3 sequence (Q8R431 1-303): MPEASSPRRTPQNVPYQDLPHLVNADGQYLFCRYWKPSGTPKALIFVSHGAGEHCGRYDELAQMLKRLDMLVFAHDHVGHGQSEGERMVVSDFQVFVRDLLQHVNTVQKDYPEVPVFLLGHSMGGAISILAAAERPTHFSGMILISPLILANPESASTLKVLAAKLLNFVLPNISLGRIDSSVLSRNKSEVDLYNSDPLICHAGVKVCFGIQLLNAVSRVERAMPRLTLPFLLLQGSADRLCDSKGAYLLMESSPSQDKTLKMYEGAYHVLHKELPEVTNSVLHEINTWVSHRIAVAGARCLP
Assay type: biochemical

Compound	Rat Brain 2AG % VehCntrl (%) @1 μM [%]
O=C(c1ccc(Cc2cccc(C(F)(F)F)c2)cc1)N1CC(N2CCN(C(=O)c3nccs3)CC2)C1 [Cpd 995]	1080
Cc1c(Cc2ccc(C(F)(F)F)cc2)cccc1C(=O)N1CC(N2CCN(C(=O)c3nccs3)CC2)C1 [Cpd 1008]	1125
O=C(c1nn(-c2ccc(Cl)cc2Cl)c2c1CCC/C2=C\c1ccc(Cl)cc1)N1CC(N2CCN(C(=O)C(F)(F)F)CC2)C1 [Cpd 1020]	135
Cn1cc(Cc2ccc(F)cc2)c2ccc(C(=O)N3CC(N4CCN(C(=O)c5nccs5)CC4)C3)cc21 [Cpd 1026]	1014
Cc1cn(-c2ccccc2)c2ccc(C(=O)N3CC(N4CCN(C(=O)c5nccs5)CC4)C3)cc12 [Cpd 1054]	1008
Cn1cc(-c2cccc(C(F)(F)F)c2)c2ccc(C(=O)N3CC(N4CCN(C(=O)c5cscn5)CC4)C3)cc21 [Cpd 1084]	1165
Cn1cc(-c2cccc(C(F)(F)F)c2)c2ccc(C(=O)N3CC(N4CCN(C(=O)c5nccs5)CC4)C3)cc21 [Cpd 1100]	1133
O=C(c1ccc2nc(-c3ccccc3)sc2c1)N1CC(N2CCN(C(=O)c3nccs3)CC2)C1 [Cpd 1125, 2-Phenyl-6-({3-[4-(1,3-thiazol-2-ylcarbonyl)piperazin-1-yl]azetidin-1-yl}carbonyl)-1,3-benzothiazole]	1228
Cn1cc(-c2ccccc2)c2ccc(C(=O)N3CC(N4CCN(C(=O)c5nccs5)CC4)C3)cc21 [Cpd 1132, 1-Methyl-3-phenyl-6-({3-[4-(1,3-thiazol-2-ylcarbonyl)piperazin-1-yl]azetidin-1-yl}carbonyl)-1H-indole]	1259
Cn1cc(-c2cccc(F)c2)c2ccc(C(=O)N3CC(N4CCN(C(=O)c5nccs5)CC4)C3)cc21 [Cpd 1142]	1314
O=C(c1ccc2nc(-c3cccc(C(F)(F)F)c3)oc2c1)N1CC(N2CCN(C(=O)c3nccs3)CC2)C1 [Cpd 1158, 6-({3-[4-(1,3-Thiazol-2-ylcarbonyl)piperazin-1-yl]azetidin-1-yl}carbonyl)-2-[3-(trifluoromethyl)phenyl]-1,3-benzoxazole]	1623
O=C(c1ccc2c(ccn2-c2ncccn2)c1)N1CC(N2CCN(C(=O)c3nccs3)CC2)C1 [Cpd 1174, 1-Pyrimidin-2-yl-5-({3-[4-(1,3-thiazol-2-ylcarbonyl)piperazin-1-yl]azetidin-1-yl}carbonyl)-1H-indole]	1021
Cn1cc(-c2ccc(F)cc2)c2ccc(C(=O)N3CC(N4CCN(C(=O)c5nccs5)CC4)C3)cc21 [Cpd 1318, 3-(4-Fluorophenyl)-1-methyl-6-({3-[4-(1,3-thiazol-2-ylcarbonyl)piperazin-1-yl]azetidin-1-yl}carbonyl)-1H-indole]	1282
O=C(c1ccc2c(-c3cccc(F)c3)c[nH]c2c1)N1CC(N2CCN(C(=O)c3nccs3)CC2)C1 [Cpd 1319]	1276
O=C(c1ccc(-c2nc(-c3ccccc3Cl)cs2)cc1)N1CC(N2CCN(C(=O)c3nccs3)CC2)C1 [Cpd 1328]	1086
O=C(c1ccc(-c2nc(-c3cccc(C(F)(F)F)c3)cs2)cc1)N1CC(N2CCN(C(=O)c3nccs3)CC2)C1 [Cpd 1332]	1168
O=C(c1ccc2c(-c3cccc(C(F)(F)F)c3)c[nH]c2c1)N1CC(N2CCN(C(=O)c3nccs3)CC2)C1 [Cpd 1341, 6-({3-[4-(1,3-Thiazol-2-ylcarbonyl)piperazin-1-yl]azetidin-1-yl}carbonyl)-3-[3-(trifluoromethyl)phenyl]-1H-indole]	1149
O=C(c1nccs1)N1CCN(C2CN(C(=O)c3ccc4c(ccn4-c4ccc(F)cc4)c3F)C2)CC1 [Cpd 1348, 4-Fluoro-1-(4-fluorophenyl)-5-({3-[4-(1,3-thiazol-2-ylcarbonyl)piperazin-1-yl]azetidin-1-yl}carbonyl)-1H-indole]	1428
O=C(c1ccc2c(ccn2-c2cccc(C(F)(F)F)c2)c1)N1CC(N2CCN(C(=O)c3nccs3)CC2)C1 [Cpd 1356, 5-({3-[4-(1,3-Thiazol-2-ylcarbonyl)piperazin-1-yl]azetidin-1-yl}carbonyl)-1-[3-(trifluoromethyl)phenyl]-1H-indole]	1420
O=C(c1ccc2c(ccn2-c2ccc(C(F)(F)F)cc2)c1)N1CC(N2CCN(C(=O)c3nccs3)CC2)C1 [Cpd 1357, 5-({3-[4-(1,3-Thiazol-2-ylcarbonyl)piperazin-1-yl]azetidin-1-yl}carbonyl)-1-[4-(trifluoromethyl)phenyl]-1H-indole]	2570
O=C(c1ccc2c(ccn2-c2ccc(F)cc2)c1)N1CC(N2CCN(C(=O)c3cscn3)CC2)C1 [Cpd 1358, 1-(4-Fluorophenyl)-5-({3-[4-(1,3-thiazol-4-ylcarbonyl)piperazin-1-yl]azetidin-1-yl}carbonyl)-1H-indole]	1183
O=C(c1ccc2c(ccn2-c2ccc(C(F)(F)F)cc2)c1)N1CC(N2CCN(C(=O)c3cscn3)CC2)C1 [Cpd 1359, 5-({3-[4-(1,3-Thiazol-4-ylcarbonyl)piperazin-1-yl]azetidin-1-yl}carbonyl)-1-[4-(trifluoromethyl)phenyl]-1H-indole]	1016
Cc1nc(-c2cccc(C(F)(F)F)c2)sc1C(=O)N1CC(N2CCN(C(=O)c3nccs3)CC2)C1 [Cpd 1407, 1-[1-({4-Methyl-2-[3-(trifluoromethyl)phenyl]-1,3-thiazol-5-yl}carbonyl)azetidin-3-yl]-4-(1,3-thiazol-2-ylcarbonyl)piperazine]	1287
O=C(c1ccc2c(ccn2-c2cccc(C(F)(F)F)c2)c1)N1CC(N2CCN(C(=O)c3cscn3)CC2)C1 [Cpd 1408, 5-({3-[4-(1,3-Thiazol-4-ylcarbonyl)piperazin-1-yl]azetidin-1-yl}carbonyl)-1-[3-(trifluoromethyl)phenyl]-1H-indole]	1475
